SMILES strings stand for the structures.

The nature of this series: gradient 5% acetonitrile 3 min, to 50% in 2 min, to 85% in 15 min, held 3 min, 100 µL/min. The settings on record: column: Zorbax Extend-C18 2.1 x 50 mm; eluents: water / acetonitrile, 0.1% formic acid. The method, boiled down: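 Pure standards were run in mixtures of ~100 molecules by HPLC coupled to a quadrupole time-of-flight mass spectrometer. The column was a Zorbax Extend-C18 (2.1 × 50 mm, 1.8 μm) at 100 μL/min, with water and acetonitrile each containing 0.1% formic acid, in positive and negative ionization mode. Dead and dwell volumes were 40 μL and 900 μL. Retention time was taken from computationally picked adduct peaks, each manually inspected, with data collected over 3 months.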
For the molecule `CCOCCCNC(=O)c1nc(Nc2ccccc2)c2ccccc2n1`, the RP-LC retention time was 1130 s.

In the case of `COc1ccc(CCNC(=O)Cn2c(=O)n(CC3CCCO3)c(=O)c3ccccc32)cc1OC` (centres undefined), the RP-LC retention time stood at 732 s.

In turn, `CCc1ccccc1NC(=O)C1CCN(S(=O)(=O)c2ccc3c(c2)NC(=O)C(CC)O3)CC1` (centres undefined) gave an RP-LC retention time of 893 s.

Regarding `COc1ccccc1-c1c(C)nn2c(SCC(=O)NCCN(C)C)cc(C)nc12`, the RP-LC retention time came to 622 s.

Regarding `Cc1ccc(-n2cc(C(=O)OCC(=O)OC(C)(C)C)c3ccccc3c2=O)cc1`, the RP-LC retention time amounted to 1210 s.

In turn, `CCCNC(=O)c1cc(-c2ccncc2)cn1Cc1ccccc1C` yielded an RP-LC retention time of 690 s.

Take `COc1ccc(-n2c(=O)c3sccc3n(Cc3nc(-c4ccccc4Cl)no3)c2=O)cc1`: the RP-LC retention time turned out to be 946 s.

Molecule `CC(C)n1c(N2CCN(C(=O)CSc3ccccc3)CC2)cc(=O)n(C(C)C)c1=O` returned an RP-LC retention time of 902 s.

The molecule `O=C(c1ccoc1)N1CC(N(Cc2ccncc2)CC2CC2)C1` registered an RP-LC retention time of 593 s.

`CC1(C(=O)NCc2ccccc2)CN(S(C)(=O)=O)CC(=O)N1Cc1ccccc1F` (centres undefined) had an RP-LC retention time of 818 s.

The molecule `O=C(NCC1CN(c2ccccc2)C(=O)O1)Nc1ccccc1Cl` (centres undefined) gave an RP-LC retention time of 776 s.

With `Brc1cncc(-c2nc(-c3ccc4c(c3)ncn4CCN3CCCC3)no2)c1`, the RP-LC retention time is 631 s.

As for `CN(C)S(=O)(=O)c1ccc2c(c1)N(CC(=O)NCCCN1CCCC1)C(=O)C1CCCCN21` (centres undefined), the RP-LC retention time came to 614 s.

In the case of `O=S(=O)(c1cc(-c2ccno2)cs1)N(Cc1cccs1)C1CCCCC1`, the RP-LC retention time was 1190 s.

`Cc1ccc(S(=O)(=O)NCCn2ncccc2=O)s1` gave an RP-LC retention time of 637 s.

Molecule `O=C(Nc1ccnn1Cc1ccccc1)c1cc(=O)c2cc(Cl)ccc2o1` showed an RP-LC retention time of 867 s.

`COCCN1C(=O)c2ccccc2C(C(=O)NCc2ccc(OC)cc2)C12CCCC2` (centres undefined) returned an RP-LC retention time of 785 s.

`Cc1ccc(Nc2c(-c3ccc(N4CCOCC4)cc3)nc3ncccn23)cc1Cl` registered an RP-LC retention time of 751 s.

Regarding `COc1ccc(Cl)cc1NC(=O)C1(c2ccccc2)CCOCC1`, the RP-LC retention time came out at 1010 s.

`COc1ccc(C(=O)Nc2ccc(CC(=O)N3CCOCC3)cc2)c(OC)c1OC`: the RP-LC retention time was 679 s.

Consider `COc1ccc2c(c1)C1(CCN(S(=O)(=O)c3ccc4c(c3)oc(=O)n4C)C1)C(=O)N2C` (centres undefined), for which the RP-LC retention time is 818 s.

Take `Cc1ccccc1OCCCCn1c(CN2CCOCC2)nc2ccccc21`: the RP-LC retention time was found to be 646 s.

Consider `COC(=O)C1=CN(c2ccc(F)cc2)c2cc(Br)ccc2S1(=O)=O`, for which the RP-LC retention time is 963 s.

Regarding `COc1cc(NC(=O)N2CCN(c3cc(C)nc(N4CCOCC4)n3)CC2)cc(OC)c1`, the RP-LC retention time came to 627 s.

`Cc1cccc2nc(-c3cccc(Cl)c3)c(Nc3ccc4c(c3)OCCO4)n12` yielded an RP-LC retention time of 717 s.

Take `O=C(Nc1nnc(SCc2cn3ccccc3n2)s1)C1(c2cccs2)CCCC1`: the RP-LC retention time stood at 611 s.

The molecule `Cc1nccn1Cc1noc(-c2cccc(F)c2)n1` returned an RP-LC retention time of 611 s.

Regarding `CCC(C)NC(=O)N1CCCN(C2=NS(=O)(=O)C(c3ccc(Cl)cc3)=C2C)CC1` (centres undefined), the RP-LC retention time came out at 825 s.

`CCc1cc(=O)n(CC(=O)NC2CCCC2)c(N)n1` displayed an RP-LC retention time of 574 s.

`CCCC(=O)Nc1ccc2c(c1)N(C(=O)c1cccs1)CCC2` registered an RP-LC retention time of 801 s.

Turning to `COc1ccc(NC(=O)c2ccc(-n3cnc(NC(=O)C4CC4)c3)cc2)c(OC)c1`, the RP-LC retention time came to 726 s.

Take `CCOC(=O)c1ccc(NC(=O)C2C(=O)N(C)C3(C)CC2c2ccccc2O3)cc1` (centres undefined): the RP-LC retention time worked out at 1000 s.

`COc1ccc(CCNC(=O)CN2C(=O)NC3(CCC(C)CC3)C2=O)cc1OC` (centres undefined) came in with an RP-LC retention time of 740 s.

On to `c1ccc(-c2oncc2CN2CCN(c3ccccn3)CC2)cc1`, for which the RP-LC retention time was determined as 603 s.

`COc1ccc(CSc2ncnc3nc[nH]c23)cc1` had an RP-LC retention time of 654 s.

For the molecule `CC(C)C(=O)Nc1cn(-c2ccc(C(=O)Nc3ccc4c(c3)OCCO4)cc2)cn1`, the RP-LC retention time came out at 808 s.

`COC(=O)c1ccc(NC(=O)C2c3cc(F)ccc3CCN2C(=O)OC)cc1` (centres undefined) registered an RP-LC retention time of 850 s.

`COC(=O)c1cc(C2CC2)nc2c1c(=O)n(Cc1cccc(F)c1)c(=O)n2C` showed an RP-LC retention time of 1130 s.

Consider `CC(C)NC(=O)c1ccc(C(C)C)cc1`, for which the RP-LC retention time came to 918 s.

Regarding `CCc1ccc(OCC(=O)Nc2cnn(C)c(=O)c2N2CCOCC2)cc1`, the RP-LC retention time was 889 s.

The molecule `CCC(CC)C(=O)Nc1ccc2nc(N3CCN(CC)CC3)cc(C)c2c1` showed an RP-LC retention time of 593 s.

Turning to `Cc1nc(C2CC23CCN(S(=O)(=O)c2c(C)c(C)cc(C)c2C)CC3)no1` (centres undefined), the RP-LC retention time was determined as 1170 s.

In turn, `CNC(=O)c1ccc(-c2nc3cc(NS(=O)(=O)c4ccccc4Cl)ccc3n2C)cc1` returned an RP-LC retention time of 633 s.

`CCn1c(=O)c2cc(C(N)=O)nn2c2ccccc21` gave an RP-LC retention time of 653 s.

`CN(C)CCn1nnc2cc(-c3noc(-c4cccc(Cl)c4)n3)ccc21` had an RP-LC retention time of 708 s.

Regarding `Cc1cccc(CN2CC(=O)N(c3cccc(Cl)c3)[C@@H]3CS(=O)(=O)C[C@@H]32)c1`, the RP-LC retention time turned out to be 892 s.

As for `CCOC(=O)Cc1csc(NC(=O)CSc2nc(C)nc3sc4c(c23)CCC4)n1`, the RP-LC retention time stood at 998 s.

Molecule `O=C(O)Cc1csc(NC(=O)C2CCC(=O)N2)n1` (centres undefined) returned an RP-LC retention time of 528 s.

Regarding `Cc1cc(Cl)ccc1OCc1nc(-c2ccc3c(c2)nnn3CCC(=O)N2CCOCC2)no1`, the RP-LC retention time was 974 s.

In turn, `CC1CCN(S(=O)(=O)N2CCCC(C(=O)NCCCN3CCc4ccccc4C3)C2)CC1` (centres undefined) registered an RP-LC retention time of 714 s.

`CNc1cccnc1OC1CCN(Cc2ccccn2)C1` (centres undefined) yielded an RP-LC retention time of 577 s.

`Cc1cc2nc(C(F)(F)F)c(=O)n(C(C)C(=O)N3CCN(C(=O)c4ccco4)CC3)c2cc1C` (centres undefined) came in with an RP-LC retention time of 957 s.

Consider `Cc1c(C(=O)NC2CCCCC2)sc2ncn(CC(=O)N3CC(C)CC(C)C3)c(=O)c12` (centres undefined), for which the RP-LC retention time was determined as 965 s.

As to `COc1ccccc1-c1csc(-c2nnn(-c3cccc(Cl)c3)c2N)n1`, the RP-LC retention time stood at 1210 s.

The molecule `O=C(NC1CCCCC1)C1CC(=O)N(c2ccc3c(c2)CCN3C(=O)C2CCC2)C1` (centres undefined) had an RP-LC retention time of 824 s.

`COc1cccc(-c2noc(N3CCN(c4ccccn4)CC3)n2)c1OC` showed an RP-LC retention time of 645 s.

In turn, `Clc1ccc2nc(-c3ccccc3)c(Nc3ccc4c(c3)OCO4)n2c1` had an RP-LC retention time of 781 s.

`O=C(N[C@H]1C[C@@H]2C[C@H]1N(S(=O)(=O)c1cc(F)cc(F)c1)C2)c1ccccc1` gave an RP-LC retention time of 870 s.

`CN(C)c1ccc(CNc2ncccc2-c2nnc(-c3ccccc3)o2)cc1` showed an RP-LC retention time of 884 s.

For the molecule `COc1ccc(N2CCN(Cc3nc4nc(C)cc(N5CCCCC5)n4n3)CC2)cc1`, the RP-LC retention time came to 660 s.

As to `CCCN1CCN(C(=O)c2cccn2Cc2noc(-c3ccccc3)n2)CC1`, the RP-LC retention time came to 653 s.

As to `CC(C)NC(=O)c1ccc2c(c1)nc(CN1CCN(C(=O)NC3CCCCC3)CC1)n2C`, the RP-LC retention time is 577 s.

In the case of `COc1ccc(OCc2nc(-c3cccc(-c4ccnn4C)c3)no2)cc1`, the RP-LC retention time is 1010 s.

Take `COc1ccc(-n2c(=O)n(C)c(=O)c3cc(C(=O)Nc4ccc(F)cc4C)cnc32)cc1`: the RP-LC retention time stood at 866 s.

For the molecule `O=C(NC1CC1)c1nc(C(=O)N2CCC3(CC2)OCCO3)cs1`, the RP-LC retention time was found to be 649 s.

Take `Cn1cc(C(=O)NC2CCCCC2)c2nn(-c3ccccc3)c(=O)c-2c1`: the RP-LC retention time amounted to 678 s.

Molecule `CCC(C)NC(=O)c1nc2cc(C)c(C)cc2n(C)c1=O` (centres undefined) displayed an RP-LC retention time of 798 s.

Turning to `O=C(NC1CCCCC1)C1CCCN(c2ccc(=O)n(-c3cccc(F)c3)n2)C1` (centres undefined), the RP-LC retention time is 785 s.

`CCc1ccc(NC(=O)C2CCN(S(=O)(=O)c3cn(C(C)C)cn3)CC2)cc1` came in with an RP-LC retention time of 840 s.

As to `Cc1c(S(=O)(=O)N2CCC(C)CC2)c(C)n(C)c1-c1nnc(C2CCC2)o1`, the RP-LC retention time was determined as 1100 s.

In turn, `CCOc1ccc(CNC(=O)CCc2nnc3c4cc(-c5ccccc5)nn4ccn23)cc1` displayed an RP-LC retention time of 785 s.

`Cc1ccc(-n2nc(SC(C)C(=O)NC3CC3)ccc2=O)cc1Cl` (centres undefined): the RP-LC retention time turned out to be 750 s.

In turn, `Cn1nccc1C(=O)N1CCCC1c1ccc(Cl)cc1` (centres undefined) displayed an RP-LC retention time of 817 s.

`O=C(NC1CC1)c1ccc(OCC2CCN(C(=O)c3ccc(Br)o3)CC2)cc1` came in with an RP-LC retention time of 830 s.

In turn, `COc1ccc(-n2nnc3c(SCc4cccc([N+](=O)[O-])c4)ncnc32)cc1` had an RP-LC retention time of 1100 s.

`COc1ccc(-c2nc(-c3ccc4c(c3)ncn4CCN3CCOCC3)no2)c(C)c1` had an RP-LC retention time of 666 s.

`CC1=NS(=O)(=O)N(Cc2ccccc2)C=C1C(=O)OCc1noc(C2CCCCC2)n1` displayed an RP-LC retention time of 1110 s.

Molecule `CCOC(=O)C1=NN(c2ccccc2)CC1C(=O)OC` (centres undefined) had an RP-LC retention time of 917 s.

Turning to `Cc1ccc(NC(=O)Cn2cnc3nc(N4CCCC(C(=O)NC(C)C)C4)sc3c2=O)cc1C` (centres undefined), the RP-LC retention time came out at 730 s.

The record behind these values is the METLIN SMRT retention time set (Domingo-Almenara et al. 2019).
